Results taken from patent US20230365576A1, “BRM Targeting Compounds And Associated Methods Of Use” (Prelude Therapeutics Incorporated, priority 2022, published 2023).

Legend:
SMARCA4 = molecular target: T1, SMARCA4 (Homo sapiens, UniProt P51532); experiment: SMARCA4 HiBiT degradation assay in HeLa cells; type: cell-based; conditions: 18 hours; for Dmax: HeLa
T1 construct: SMARCA4-HiBiT knock-in Hela monoclonal cell (CS3023226) were purchased from Promega; host or cells: HeLa (CRISPR HiBiT knock-in monoclonal line, heterozygous)
Description: (§1) Example A. SMARCA2 HiBiT and SMARCA4 HiBiT Degradation Assay
(§2) Preparation of SMARCA2/4-HiBiT Knock-In Cells
(§3) HiBiT peptide knock-in of SMARCA2 in LgBiT expressing HEK293T cells was performed by CRISPR-mediated tagging system as described Promega. The homozygous HiBiT knock-in on c-terminus SMARCA2 was confirmed by sanger sequence. SMARCA2-HiBiT knock-in Hela monoclonal cell (CS302366) and SMARCA4-HiBiT knock-in Hela monoclonal cell (CS3023226) were purchased from Promega. The heterozygous HiBiT-knock-in was confirmed by sanger sequence in both SMARCA2-HiBiT and SMARCA4-HiBiT monoclonal cells.
(§4) SMARCA2 HiBiT and SMARCA4 HiBiT Degradation Assay in HeLa Cells
(§5) Compounds were dissolved in DMSO to make 10 mM stock and 3-fold series dilutions were further conducted keeping the highest concentration 10 μM. NCIH1693 and NCIH520 cells were maintained in PRMI 1640 medium (Corning Cellgro, Catalog #:10-040-CV) supplemented with 10% v/v FBS (GE Healthcare, Catalog #: SH30910.03) by splitting 1:3 twice a week.
(§6) Dispense 10 ul aliquot of prepared Hela-SMARCA2-HiBiT or Hela-SMARCA4-HiBiT cells (1:1 ratio of cells:Trypan Blue (#1450013, Bio-Rad)) onto cell counting slide (#145-0011, Bio-Rad) and obtain cell density and cell viability using cell counter (TC20, Bio-Rad). Remove appropriate volume of resuspended cells from culture flask to accommodate 2500 cells/well @ 20 μL/well. Transfer Hela-HiBiT cells to 50 mL conical (#430290, Corning). Spin down at 1000 rpm for 5 min using tabletop centrifuge (SPINCHRON 15, Beckman). Discard supernatant and resuspend cell pellet in modified EMEM (#30-2003, ATCC) cell culture media containing 10% FBS (F2422-500ML, Sigma), and 1X Penicillin/Streptomycin (200 g/L) (30-002-CI, Corning) to a cell density of 125,000 cells/mL. Dispense 20 μL of resuspended Hela-HiBit cells per well in 384-well TC treated plate (#12-565-343, Thermo Scientific) using standard cassette (#50950372, Thermo Scientific) on Multidrop Combi (#5840310, Thermo Scientific) inside laminar flow cabinet. Dispense test compounds onto plates using digital liquid dispenser (D300E, Tecan). Incubate plates in humidified tissue culture incubator @37° C. for 18 hours. Add 20 μL of prepared Nano-Glo® HiBiT Lytic detection buffer (N3050, Promega) to each well of 384-well plate using small tube cassette (#24073295, Thermo Scientific) on Multidrop Combi, incubate @ RT for 30-60 min. Read plates on microplate reader (Envision 2105, PerkinElmer) using 384 well Ultra-Sensitive luminescence mode. Raw data files and compound information reports are swept into centralized data lake and deconvoluted using automated scripts designed by TetraScience, Inc. Data analysis, curve-fitting and reporting done in Dotmatics Informatics Suite using Screening Ultra module.

SMARCA2 = molecular target: T2, SMARCA2 (Homo sapiens, UniProt P51531); experiment: SMARCA2 HiBiT degradation assay in HeLa cells; type: cell-based; conditions: 18 hours; for DC50: read-out: SMARCA2 IC50; for Dmax: HeLa
T2 construct: SMARCA2-HiBiT knock-in Hela monoclonal cell (CS302366); host or cells: HeLa (CRISPR HiBiT knock-in monoclonal line, heterozygous)
Description: as §1, §2, §3, §4, §5, §6

T2 sequence (P51531 whole entry): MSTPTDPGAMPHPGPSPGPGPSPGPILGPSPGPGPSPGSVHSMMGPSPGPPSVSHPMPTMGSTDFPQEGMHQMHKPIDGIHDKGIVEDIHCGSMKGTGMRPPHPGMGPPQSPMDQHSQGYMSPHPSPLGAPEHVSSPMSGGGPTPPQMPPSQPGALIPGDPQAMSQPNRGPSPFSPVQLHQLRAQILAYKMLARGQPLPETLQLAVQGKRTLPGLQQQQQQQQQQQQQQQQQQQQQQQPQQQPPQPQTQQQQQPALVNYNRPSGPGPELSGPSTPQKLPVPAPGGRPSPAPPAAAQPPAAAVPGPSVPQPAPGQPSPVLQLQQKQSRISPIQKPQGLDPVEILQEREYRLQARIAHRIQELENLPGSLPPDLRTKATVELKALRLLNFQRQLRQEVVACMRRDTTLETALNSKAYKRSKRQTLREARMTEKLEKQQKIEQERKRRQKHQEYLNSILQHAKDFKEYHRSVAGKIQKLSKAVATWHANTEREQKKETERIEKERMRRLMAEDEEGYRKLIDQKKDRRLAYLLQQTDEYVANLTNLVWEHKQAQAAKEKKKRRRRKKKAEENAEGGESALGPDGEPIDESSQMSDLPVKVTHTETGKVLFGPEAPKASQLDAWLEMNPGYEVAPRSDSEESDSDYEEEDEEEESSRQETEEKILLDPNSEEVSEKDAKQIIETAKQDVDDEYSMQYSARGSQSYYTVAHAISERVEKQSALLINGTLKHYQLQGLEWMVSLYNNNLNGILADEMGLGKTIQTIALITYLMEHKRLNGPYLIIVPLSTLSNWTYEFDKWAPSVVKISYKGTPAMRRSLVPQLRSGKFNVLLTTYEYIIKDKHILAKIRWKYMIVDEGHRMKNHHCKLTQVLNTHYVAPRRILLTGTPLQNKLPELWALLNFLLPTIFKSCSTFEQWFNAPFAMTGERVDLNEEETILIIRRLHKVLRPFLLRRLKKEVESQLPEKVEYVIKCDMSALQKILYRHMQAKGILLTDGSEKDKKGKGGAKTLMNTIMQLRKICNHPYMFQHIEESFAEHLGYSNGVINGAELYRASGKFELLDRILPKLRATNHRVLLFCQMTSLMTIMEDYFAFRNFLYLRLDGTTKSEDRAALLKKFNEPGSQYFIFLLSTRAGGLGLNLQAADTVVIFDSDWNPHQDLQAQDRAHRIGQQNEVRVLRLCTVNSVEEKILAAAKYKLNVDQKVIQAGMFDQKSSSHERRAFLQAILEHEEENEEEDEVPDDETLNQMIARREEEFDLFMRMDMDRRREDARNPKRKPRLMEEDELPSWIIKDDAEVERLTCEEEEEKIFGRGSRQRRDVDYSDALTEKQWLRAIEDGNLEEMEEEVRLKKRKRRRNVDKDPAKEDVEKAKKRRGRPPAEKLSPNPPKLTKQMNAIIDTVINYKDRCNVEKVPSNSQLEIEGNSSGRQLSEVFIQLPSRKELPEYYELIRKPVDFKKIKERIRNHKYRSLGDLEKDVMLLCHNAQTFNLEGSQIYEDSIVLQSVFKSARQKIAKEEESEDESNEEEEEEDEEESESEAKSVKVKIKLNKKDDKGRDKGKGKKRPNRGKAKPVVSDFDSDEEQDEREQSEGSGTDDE
T1 sequence (P51532 whole entry): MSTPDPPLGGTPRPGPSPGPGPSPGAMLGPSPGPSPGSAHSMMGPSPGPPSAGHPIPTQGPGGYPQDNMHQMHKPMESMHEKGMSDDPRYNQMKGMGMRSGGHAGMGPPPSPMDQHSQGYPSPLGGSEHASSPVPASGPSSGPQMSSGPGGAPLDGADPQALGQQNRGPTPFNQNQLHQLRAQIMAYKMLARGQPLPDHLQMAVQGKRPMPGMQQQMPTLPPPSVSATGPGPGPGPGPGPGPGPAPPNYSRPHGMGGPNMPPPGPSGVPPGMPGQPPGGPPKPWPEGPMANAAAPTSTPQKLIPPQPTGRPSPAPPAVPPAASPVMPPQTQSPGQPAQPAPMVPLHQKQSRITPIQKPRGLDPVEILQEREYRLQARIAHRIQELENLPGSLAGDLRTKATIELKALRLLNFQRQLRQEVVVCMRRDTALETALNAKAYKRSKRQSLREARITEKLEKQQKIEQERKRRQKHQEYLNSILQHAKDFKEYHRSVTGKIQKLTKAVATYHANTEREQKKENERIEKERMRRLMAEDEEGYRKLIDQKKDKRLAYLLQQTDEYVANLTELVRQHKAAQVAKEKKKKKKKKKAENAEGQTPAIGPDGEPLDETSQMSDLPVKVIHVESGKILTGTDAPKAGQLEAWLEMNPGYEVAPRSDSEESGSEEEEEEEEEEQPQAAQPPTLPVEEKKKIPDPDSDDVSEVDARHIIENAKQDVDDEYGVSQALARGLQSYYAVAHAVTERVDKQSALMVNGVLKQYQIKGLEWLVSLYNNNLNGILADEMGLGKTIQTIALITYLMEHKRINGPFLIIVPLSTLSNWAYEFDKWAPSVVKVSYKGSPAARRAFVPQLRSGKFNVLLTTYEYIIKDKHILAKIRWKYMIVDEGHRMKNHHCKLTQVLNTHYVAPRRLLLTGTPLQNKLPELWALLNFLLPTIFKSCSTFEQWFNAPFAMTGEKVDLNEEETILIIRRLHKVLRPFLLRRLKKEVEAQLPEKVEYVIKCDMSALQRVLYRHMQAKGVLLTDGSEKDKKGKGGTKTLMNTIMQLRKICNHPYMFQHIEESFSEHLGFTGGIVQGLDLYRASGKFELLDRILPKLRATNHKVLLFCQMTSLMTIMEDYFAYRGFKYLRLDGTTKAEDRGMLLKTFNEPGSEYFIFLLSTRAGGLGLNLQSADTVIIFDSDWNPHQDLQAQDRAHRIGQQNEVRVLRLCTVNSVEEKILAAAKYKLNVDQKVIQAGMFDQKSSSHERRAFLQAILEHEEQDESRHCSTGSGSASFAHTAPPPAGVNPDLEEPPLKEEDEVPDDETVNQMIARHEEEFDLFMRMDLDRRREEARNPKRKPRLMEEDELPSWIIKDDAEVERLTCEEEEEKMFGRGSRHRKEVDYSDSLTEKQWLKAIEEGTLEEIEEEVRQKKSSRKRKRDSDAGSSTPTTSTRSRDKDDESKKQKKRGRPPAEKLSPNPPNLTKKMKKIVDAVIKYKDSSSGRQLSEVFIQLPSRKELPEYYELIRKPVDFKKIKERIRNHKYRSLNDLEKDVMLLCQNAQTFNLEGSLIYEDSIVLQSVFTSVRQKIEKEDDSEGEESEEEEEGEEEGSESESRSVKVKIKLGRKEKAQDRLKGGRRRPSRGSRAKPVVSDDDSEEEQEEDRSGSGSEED

Structure (SMILES) | DC50 (SMARCA4) [nM] | Dmax (SMARCA4) [%] | DC50 (SMARCA2) [nM] | Dmax (SMARCA2) [%] | SMARCA4 DMax % (SMARCA4) | SMARCA2 DMax % (SMARCA2)
CC1(C)CN(CC2CCN(c3ccc4c(c3)C(=O)N(C3CCC(=O)NC3=O)C4)CC2)CCN1C(=O)N1CCN2c3cc(-c4cccc(F)c4O)nnc3NCC2(C)C1 (mixture of isomers) [Example 6, 3-(6-(4-((4-(2-(3-fluoro-2-hydroxyphenyl)-6a-methyl-6,6a,7,8,9,10-hexahydro-5H-pyrazino[1′,2′:4,5]pyrazino[2,3-c]pyridazine-8-carbonyl)-3,3-dimethylpiperazin-1-yl)methyl)piperidin-1-yl)-1-oxoisoindolin-2-yl)piperidine-2,6-dione] | < 100 | > 75 | < 100 | > 75 | – | –
CC1(C)CN(CC2CCN(c3ccc4c(c3)C(=O)N(C3CCC(=O)NC3=O)C4=O)CC2)CCN1C(=O)N1CCN2c3cc(-c4cccc(F)c4O)nnc3NCC2(C)C1 (mixture of isomers) [Example 7, 2-(2,6-dioxopiperidin-3-yl)-5-(4-((4-(2-(3-fluoro-2-hydroxyphenyl)-6a-methyl-6,6a,7,8,9,10-hexahydro-5H-pyrazino[1′,2′:4,5]pyrazino[2,3-c]pyridazine-8-carbonyl)-3,3-dimethylpiperazin-1-yl)methyl)piperidin-1-yl)isoindoline-1,3-dione] | < 100 | 50 to 75 | < 100 | > 75 | – | –
CCC12CNc3nnc(-c4cccc(F)c4O)cc3N1CCN(C(=O)N1CCN(CC3CCN(c4ccc5c(c4)C(=O)N(C4CCC(=O)NC4=O)C5)CC3)CC1(C)C)C2 (mixture of isomers) [Example 8, 3-(6-(4-((4-(6a-ethyl-2-(3-fluoro-2-hydroxyphenyl)-6,6a,7,8,9,10-hexahydro-5H-pyrazino[1′,2′:4,5]pyrazino[2,3-c]pyridazine-8-carbonyl)-3,3-dimethylpiperazin-1-yl)methyl)piperidin-1-yl)-1-oxoisoindolin-2-yl)piperidine-2,6-dione] | < 100 | 50 to 75 | < 100 | > 75 | – | –
CCC12CNc3nnc(-c4cc(F)cc(F)c4O)cc3N1CCN(C(=O)N1CCN(CC3CCN(c4ccc5c(c4)C(=O)N(C4CCC(=O)NC4=O)C5)CC3)CC1(C)C)C2 (mixture of isomers) [Example 27, 3-(6-(4-((4-(2-(3,5-difluoro-2-hydroxyphenyl)-6a-ethyl-6,6a,7,8,9,10-hexahydro-5H-pyrazino[1′,2′:4,5]pyrazino[2,3-c]pyridazine-8-carbonyl)-3,3-dimethylpiperazin-1-yl)methyl)piperidin-1-yl)-1-oxoisoindolin-2-yl)piperidine-2,6-dione] | < 100 | 50 to 75 | < 100 | > 75 | – | –
CCC1CN(CC2CN(c3ccc4c(c3)C(=O)N(C3CCC(=O)NC3=O)C4)C2)CCN1C(=O)N1CCN2c3cc(-c4cc(F)cc(F)c4O)nnc3NC[C@H]2C1 (mixture of isomers) [Example 29, 3-(6-(3-((4-((S)-2-(3,5-difluoro-2-hydroxyphenyl)-6,6a,7,8,9,10-hexahydro-5H-pyrazino[1′,2′:4,5]pyrazino[2,3-c]pyridazine-8-carbonyl)-3-ethylpiperazin-1-yl)methyl)azetidin-1-yl)-1-oxoisoindolin-2-yl)piperidine-2,6-dione] | < 100 | < 50 | < 100 | > 75 | – | –
CC1(C)CN(CC2CCN(c3ccc4c(c3)C(=O)N(C3CCC(=O)NC3=O)C4)CC2)CCN1C(=O)N1CCN2c3cc(-c4cccc(Cl)c4O)nnc3NCC2(C)C1 (mixture of isomers) [Example 31, 3-(6-(4-((4-(2-(3-chloro-2-hydroxyphenyl)-6a-methyl-6,6a,7,8,9,10-hexahydro-5H-pyrazino[1′,2′:4,5]pyrazino[2,3-c]pyridazine-8-carbonyl)-3,3-dimethylpiperazin-1-yl)methyl)piperidin-1-yl)-1-oxoisoindolin-2-yl)piperidine-2,6-dione] | < 100 | < 50 | < 100 | 50 to 75 | – | –
CCC12CNc3nnc(-c4cccc(F)c4O)cc3N1CCN(C(=O)N1CCN(CC3CCN(c4ccc5c(c4)C(=O)N(C4CCC(=O)NC4=O)C5=O)CC3)CC1(C)C)C2 (mixture of isomers) [Example 32, 2-(2,6-dioxopiperidin-3-yl)-5-(4-((4-(6a-ethyl-2-(3-fluoro-2-hydroxyphenyl)-6,6a,7,8,9,10-hexahydro-5H-pyrazino[1′,2′:4,5]pyrazino[2,3-c]pyridazine-8-carbonyl)-3,3-dimethylpiperazin-1-yl)methyl)piperidin-1-yl)isoindoline-1,3-dione] | < 100 | < 50 | < 100 | 50 to 75 | – | –
CCC1CN(CC2CCN(c3ccc4c(c3)C(=O)N(C3CCC(=O)NC3=O)C4)CC2)CCN1C(=O)N1CCN2c3cc(-c4cc(F)cc(F)c4O)nnc3NC[C@H]2C1 (mixture of isomers) [Example 35, 3-(6-(4-((4-((S)-2-(3,5-difluoro-2-hydroxyphenyl)-6,6a,7,8,9,10-hexahydro-5H-pyrazino[1′,2′:4,5]pyrazino[2,3-c]pyridazine-8-carbonyl)-3-ethylpiperazin-1-yl)methyl)piperidin-1-yl)-1-oxoisoindolin-2-yl)piperidine-2,6-dione] | < 100 | 50 to 75 | < 100 | > 75 | – | –
C[C@@H]1CN(C[C@H]2CCN(c3ccc4c(c3)C(=O)N(C3CCC(=O)NC3=O)C4)C[C@@H]2F)C[C@H](C)N1C(=O)N1CCN2c3cc(-c4cc(F)cc(F)c4O)nnc3NC[C@H]2C1 (mixture of isomers) [Example 42, 3-(6-((rac-3R,4R)-4-(((3S,5R)-4-((S)-2-(3,5-difluoro-2-hydroxyphenyl)-6,6a,7,8,9,10-hexahydro-5H-pyrazino[1′,2′:4,5]pyrazino[2,3-c]pyridazine-8-carbonyl)-3,5-dimethylpiperazin-1-yl)methyl)-3-fluoropiperidin-1-yl)-1-oxoisoindolin-2-yl)piperidine-2,6-dione] | < 100 | < 50 | < 100 | > 75 | – | –
CC1(C)CN(CC2CCN(c3ccc4c(c3)C(=O)N(C3CCC(=O)NC3=O)C4)CC2)CCN1C(=O)N1CCN2c3cc(-c4cccc(F)c4O)nnc3NCC2(C)C1 (single isomer, unassigned) [Example 9, 3-(6-(4-((4-(2-(3-fluoro-2-hydroxyphenyl)-6a-methyl-6,6a,7,8,9,10-hexahydro-5H-pyrazino[1′,2′:4,5]pyrazino[2,3-c]pyridazine-8-carbonyl)-3,3-dimethylpiperazin-1-yl)methyl)piperidin-1-yl)-1-oxoisoindolin-2-yl)piperidine-2,6-dione] | < 100 | – | < 100 | > 75 | A (A=Dmax>75%) | –
CC1(C)CN(CC2CCN(c3ccc4c(c3)C(=O)N(C3CCC(=O)NC3=O)C4)CC2)CCN1C(=O)N1CCN2c3cc(-c4cccc(F)c4O)nnc3NCC2(C)C1 (single isomer, unassigned) [Example 10, 3-(6-(4-((4-(2-(3-fluoro-2-hydroxyphenyl)-6a-methyl-6,6a,7,8,9,10-hexahydro-5H-pyrazino[1′,2′:4,5]pyrazino[2,3-c]pyridazine-8-carbonyl)-3,3-dimethylpiperazin-1-yl)methyl)piperidin-1-yl)-1-oxoisoindolin-2-yl)piperidine-2,6-dione] | < 100 | – | < 100 | – | C (C=Dmax<50%) | A (A=Dmax>75%)
C[C@@H]1CN(CC2CCN(c3ccc4c(c3)C(=O)N(C3CCC(=O)NC3=O)C4)CC2)C[C@H](C)N1C(=O)N1CCN2c3cc(-c4cccc(F)c4O)nnc3NCC2(C)C1 (single isomer, unassigned) [Example 11] | < 100 | – | < 100 | > 75 | B (B=50%<Dmax≤75%) | –
